Source: patent US20250304623A1, “PEPTIDES FOR INTRACELLULAR DELIVERY” (UNIVERSIDADE DE SANTIAGO DE COMPOSTELA, priority 2022, published 2025)
*: point of attachment. NHNH2 = NN*

Experiments:
Assay type in all cases: cell-based
[1] = system: HCT116 cells expressing EGFP; assay: EGFP-targeting siRNA delivery (GFP silencing vs siMOCK), HCT116
Method: To generate an EGFP expressing HeLa cell line, HeLa cells were transfected with EGFP pDNA (pEGFP-C1, Clontech) and stable transfectants were selected with 400 μg/mL of G-418 (Millipore). Green clones were selected by epifluorescence microscopy and tested for EGFP expression stability through several passages. […] All other EGFP-expressing cell lines were obtained in a similar way from parent non-EGFP-expressing cell lines.
Cells expressing EGFP were seeded in a 96 well plate the day before the experiment at a concentration of 50,000 cell/mL (100 μL/w) in DMEM+10% FBS+1% Gln-Abt. For robotic library screening, the delivery of an EGFP-targeting siRNA (EGFP: enhanced green fluorescent protein, Ambion® Silencer® GFP Positive Control siRNA (siGFP) (AM4626)) in six different cell lines expressing EGFP was performed. Amphiphilic molecules stock solutions in DMSO were diluted with DMEM and freshly mixed with siRNA stock solutions in DMEM prior to transfection experiments, to afford several complexes at different amphiphile concentration (2-10 μM) while maintaining a constant final siRNA concentration of 30 nM. The mixture was shaken for 30 min at room temperature (rt) before the addition to the cells. The cell medium was aspirated, and cells were washed twice with PBS. Finally, 50 μL of the solution of siRNA/amphiphile complexes were added to the cells and incubated for 4 h. After transfection, the medium was replaced by 100 μL of fresh DMEM supplemented with 10% FBS. The fluorescence knockdown was quantified after 72 h in a plate reader, by comparison with cells transfected with a non-targeting siRNA control (siMOCK, Silencer™ Negative Control No. 1 siRNA (siMOCK) (AM4611)). EGFP knockdown was compared with Lipofectamine® RNAiMAX silencing efficiency (30-60% depending on cell line, defined with a numeric value in the below tables). All experiments were done in triplicate.
(§1) Tables 1-7: RLuc (pDNA) or EGFP (mRNA) expression levels were normalized to Lipofectamine reagents (value=1) and expressed as fold-times signal increase. In the case of siRNA, the siRNA treated cells fluorescence was compared with siMOCK control fluorescence, while Cas9-RNP mediated knockout was measured against the fluorescence of untreated cells. In both siRNA and Cas9-RNP, values are expressed as % fluorescence reduction. Amphiphile concentration was 5 μM in all cases. All experiments were performed in triplicate.
Tables 20-25 show the mean (triplicates) percentage of GFP-silencing, accounted by fluorescence intensity decrease relative to a non-targeting siRNA (siMOCK) control, measured after the transfection of siRNA by different amphiphiles at different concentrations in a variety of cell lines. Background values, accounted by untreated control cells, were subtracted for processing.

A549 cells = assay: EGFP mRNA delivery, robotic library screening, A549
Method: Cells were seeded in a 96 well plate the day before the experiment at a concentration of 50,000 cell/mL (100 μL/w) in DMEM+10% FBS+1% Gln-Abt. For robotic library screening, the delivery of EGFP-mRNA (from TriLink, fully substituted with 5-methoxyuridine, capped and polyadenylated; TriLink, CleanCap® EGFP mRNA (5moU), ref. L-7201) in six different cell lines was performed. Amphiphilic molecule stock solutions were prepared in DMSO as described above and diluted in DMEM to afford a range of concentrations. The solutions of EGFP-mRNA/amphiphilic molecule complexes were freshly prepared prior to the transfection experiments. 35 μL of the corresponding amphiphile were added to 10 μL of a solution of EGFP-mRNA at 10 ng/μL in DMEM. The mixture was shaken for 30 min at room temperature before the addition to the cells. The cell medium was aspirated, and cells were washed with PBS twice. Cells were covered with 39 μL of DMEM and 11 μL of the complex's solution were added to the cells and incubated for 4 h (final concentration of peptide=2.5, 5 and 10 μM; final concentration of EGFP-mRNA=25 ng/well). After the incubation, the medium was replaced by 100 μL of fresh DMEM supplemented with 10% FBS. The total EGFP fluorescence was quantified after 72 h in a well plate reader. Amphiphile transfection efficiency was compared and normalized to Lipofectamine® MessengerMax efficiency (value of 1 in Tables 1-5 and 7; double underlined numbers). All experiments were done in triplicate.
as §1
Tables 14-19 show the mean (triplicates) fluorescence intensity measured after the transfection of EGFP mRNA by different amphiphiles at different concentrations in a variety of cell lines. Background fluorescence values, accounted by untreated control cells, were subtracted for processing.

Hela cells = assay: RLuc pDNA delivery, robotic library screening, HeLa
Method: Cells were seeded in a 96 well plate the day before the experiment at a concentration of 60,000 cell/mL (100 μL/w) in DMEM+10% FBS+1% Gln-Abt. For robotic library screening, the delivery of pDNA encoding for the expression of Renilla luciferase gene (RLuc, pRL-CMV (Promega, #E2261)) in six different cell lines was performed. […] The mixture was shaken for 30 min at room temperature before the addition to the cells. The cell medium was aspirated, and cells were washed twice with PBS. Finally, 50 μL of the complex's solution were added to the cells and incubated for 4 h. After the incubation, the medium was replaced by 100 μL of fresh DMEM supplemented with 10% FBS. 72 hours after transfection the DMEM was removed, cells were washed once with HBSS and 90 μL of HBSS were added to each well. Cells were incubated at 37° C. for 30 minutes. Then basal luminescence levels were read in a plate reader. Immediately, 10 μL of coelenterazine h in HBSS were added to each well (5 μM final concentration) and cells were incubated at 37° C. for 10 minutes. Finally, the total luminescence measurement of the plates was performed. Amphiphile transfection efficiency was compared and normalized to Lipofectamine® 2000 efficiency (value of 1 in Tables 1-5 and 7; bold numbers). All experiments were done in triplicate.
as §1
Tables 8-13 show the mean (triplicates) luminescent intensity (RLU) measured after the transfection of RLuc pDNA by different amphiphiles at different concentrations in a variety of cell lines. Background luminescence values, accounted by untransfected control cells, were subtracted for processing.

Substance	percentage of GFP-silencing relative to siMOCK ([1]; Dodecanal, 5 μM)	percentage of GFP-silencing relative to siMOCK ([1]; Myristoleyl, 10 μM)	percentage of GFP-silencing relative to siMOCK ([1]; Petroselinyl, 5 μM)	mean fluorescence intensity (EGFP mRNA) (A549 cells; Dodecanal, 2.5 μM)	mean fluorescence intensity (EGFP mRNA) (A549 cells; Myristoleyl, 2.5 μM)	mean fluorescence intensity (EGFP mRNA) (A549 cells; Oleyl, 2.5 μM)	mean fluorescence intensity (EGFP mRNA) (A549 cells; Oleyl, 5 μM)	mean fluorescence intensity (EGFP mRNA) (A549 cells; Oleyl, 10 μM)	mean fluorescence intensity (EGFP mRNA) (A549 cells; Palmitoleyl, 2.5 μM)	mean fluorescence intensity (EGFP mRNA) (A549 cells; Palmitoleyl, 5 μM)	mean fluorescence intensity (EGFP mRNA) (A549 cells; Petroselinyl, 2.5 μM)	mean fluorescence intensity (EGFP mRNA) (A549 cells; Petroselinyl, 5 μM)	mean fluorescence intensity (EGFP mRNA) (A549 cells; Petroselinyl, 10 μM)	mean luminescent intensity (RLuc pDNA) (Hela cells; Hela, Myristoleyl, 5 μM)	mean luminescent intensity (RLuc pDNA) (Hela cells; Hela, Myristoleyl, 10 μM)	mean luminescent intensity (RLuc pDNA) (Hela cells; Hela, Myristoleyl, 15 μM)	percentage of GFP-silencing relative to siMOCK ([1]; Dodecanal, 10 μM)	percentage of GFP-silencing relative to siMOCK ([1]; Myristoleyl, 15 μM)	mean fluorescence intensity (EGFP mRNA) (A549 cells; Myristoleyl, 5 μM)	mean fluorescence intensity (EGFP mRNA) (A549 cells; Myristoleyl, 10 μM)	further results
Ac-RHLK*RLK*RRLK*RL-NH2 (Ac-RHLKRLKRRLKRL-NH2; not fully specified (residues 4, 7, 11); printed as Ac-RHLK*RLK*RRLK*RL-NH2; also: linker on K* not given here) [13(Arg-His)]	65%	24%	56%	626	392	886	719	386	1177	348	652	306	151	−195 RLU	−333 RLU	−332 RLU	–	–	–	–	percentage of GFP-silencing relative to siMOCK ([1]; Myristoleyl, 5 μM): 62%; percentage of GFP-silencing relative to siMOCK ([1]; Palmitoleyl, 5 μM): 64%; mean fluorescence intensity (EGFP mRNA) (A549 cells; Palmitoleyl, 10 μM): 437; mean luminescent intensity (RLuc pDNA) (Hela cells; Hela, Palmitoleyl, 5 μM): 5484 RLU; mean luminescent intensity (RLuc pDNA) (Hela cells; Hela, Palmitoleyl, 10 μM): 921 RLU; mean luminescent intensity (RLuc pDNA) (Hela cells; Hela, Petroselinyl, 5 μM): 8590 RLU
Ac-RK*LRK*K*L-NH2 (Ac-RK(NHNH2)LRK(NHNH2)K(NHNH2)L-NH2; not fully specified; printed as Ac-RK*LRK*K*L-NH2; also: K*2,K*5,K*6: native or modified lysine (ε-amide to a linker)) [Peptide 7.3]	8%	–	15%	2894	4491	218	1205	1046	2134	3484	1317	6947	641	−622 RLU	−417 RLU	−422 RLU	14%	27%	5378	228	percentage of GFP-silencing relative to siMOCK ([1]; Palmitoleyl, 10 μM): 23%; percentage of GFP-silencing relative to siMOCK ([1]; Petroselinyl, 15 μM): 11%; mean fluorescence intensity (EGFP mRNA) (A549 cells; Dodecanal, 5 μM): 4662; mean fluorescence intensity (EGFP mRNA) (A549 cells; Dodecanal, 10 μM): 248; mean luminescent intensity (RLuc pDNA) (Hela cells; HeLa, Dodecanal, 5 μM): 5231 RLU; mean luminescent intensity (RLuc pDNA) (Hela cells; Hela, Palmitoleyl, 15 μM): 19128 RLU; mean luminescent intensity (RLuc pDNA) (Hela cells; Hela, Petroselinyl, 15 μM): 12638 RLU
Ac-RK*LRRK*L-NH2 (Ac-RK(NHNH2)LRRK(NHNH2)L-NH2; not fully specified; printed as Ac-RK*LRRK*L-NH2; also: K*2,K*6: native or modified lysine (ε-amide to a linker)) [Peptide 7.2]	−20%	19%	–	428	1101	–	–	–	–	–	–	–	–	−664 RLU	−678 RLU	−687 RLU	−5%	−22%	231	123	mean fluorescence intensity (EGFP mRNA) (A549 cells; Dodecanal, 5 μM): −205; mean fluorescence intensity (EGFP mRNA) (A549 cells; Dodecanal, 10 μM): −3; mean luminescent intensity (RLuc pDNA) (Hela cells; HeLa, Dodecanal, 5 μM): 2459 RLU
Ac-RK*LRRK*LRK*-NH2 (Ac-RK(NHNH2)LRRK(NHNH2)LRK(NHNH2)-NH2; not fully specified; printed as Ac-RK*LRRK*LRK*-NH2; also: K*2,K*6,K*9: native or modified lysine (ε-amide to a linker)) [Peptide 9.3]	33%	40%	–	–	–	89	399	139	–	–	94	789	349	3600 RLU	18554 RLU	4014 RLU	33%	13%	219	−17	percentage of GFP-silencing relative to siMOCK ([1]; Dodecanal, 15 μM): 48%; percentage of GFP-silencing relative to siMOCK ([1]; Oleyl, 5 μM): 35%; percentage of GFP-silencing relative to siMOCK ([1]; Oleyl, 15 μM): 54%; percentage of GFP-silencing relative to siMOCK ([1]; Palmitoleyl, 10 μM): 25%; percentage of GFP-silencing relative to siMOCK ([1]; Palmitoleyl, 15 μM): 45%; percentage of GFP-silencing relative to siMOCK ([1]; Petroselinyl, 15 μM): 33%; mean luminescent intensity (RLuc pDNA) (Hela cells; HeLa, Petroselinyl, 10 μM): 1228 RLU; mean luminescent intensity (RLuc pDNA) (Hela cells; Hela, Dodecanal, 10 μM): 70716 RLU; mean luminescent intensity (RLuc pDNA) (Hela cells; Hela, Dodecanal, 15 μM): 303962 RLU; mean luminescent intensity (RLuc pDNA) (Hela cells; Hela, Oleyl, 10 μM): 5404 RLU; mean luminescent intensity (RLuc pDNA) (Hela cells; Hela, Oleyl, 15 μM): 1759 RLU; mean luminescent intensity (RLuc pDNA) (Hela cells; Hela, Palmitoleyl, 10 μM): 940 RLU; mean luminescent intensity (RLuc pDNA) (Hela cells; Hela, Palmitoleyl, 15 μM): 22617 RLU; mean luminescent intensity (RLuc pDNA) (Hela cells; Hela, Petroselinyl, 5 μM): 1035 RLU; mean luminescent intensity (RLuc pDNA) (Hela cells; Hela, Petroselinyl, 15 μM): 14602 RLU
